This note sets out measurements from patent US7453010B2, “Phenylcyclohexylpropanolamine derivatives, preparation and therapeutic application thereof” (Sanofi Aventis, priority 2002, dated 2008).

Compound `CCOC(=O)COc1ccc([C@H]2CC[C@H](NC[C@H](O)COc3ccc(O)c(NS(C)(=O)=O)c3)CC2)cc1` [Compound 2, Ethyl trans-(4-{4-[((2S)-2-hydroxy-3-{4-hydroxy-3-[(methylsulfonyl)amino]phenoxy}propyl)amino]cyclohexyl}phenoxy)acetate] gave a melting point of 60 to 70 °C.

For `CS(=O)(=O)Nc1cc(OC[C@@H](O)CN[C@H]2CC[C@H](c3ccc(O)cc3)CC2)ccc1O` [Compound 1, trans-N-{2-Hydroxy-5-[((2S)-2-hydroxy-3-{[4-(4-hydroxyphenyl)cyclohexyl]amino}propyl)oxy]phenyl}methanesulfonamide], the melting point lay in the range of 85 to 90 °C.

The melting point is the temperature of the solid-liquid transition.
